Patent EP0312283A2, “Di-or tripeptide renin inhibitors containing lactam conformational restrictions in ACHPA” (Merck & Co., Inc., priority 1987, dated 1989)

Tested on: human plasma renin
Assay: In vitro inhibition of human plasma renin (Boger et al. assay)
Format: biochemical
Experimental: In vitro inhibition of human plasma renin was measured as described by Boger, et al., J. Med. Chem (1985) 28, 1779.
They were analyzed for purity by HPLC (30 minute gradient, 5% CH3CN-H2O to 95% CH3CN-H20 buffered with 0.1% H3PO4; C18 reverse phase column), and were analyzed for composition by C, H, and N combustion analysis. IC50 values were measured in vitro using the human plasma renin assay, as described by Boger et al. J. Med. Chem. (1985) 28, 1779.

- IC50: 7.7 nM
Substance: Boc-Phe-His-(ACHP-1-(2-Hydroxyethyl)-2-Pyrrolidinone [Example 3H]
